Measurements as given in patent publication US6713506B2, “Tea polyphenol esters and analogs thereof for cancer prevention and treatment” (University of South Florida, priority 2000, dated 2004).
Non-standard residues stand in square brackets, D forms with d. Residues, ends and D or L forms follow the SMILES beside them. *: point of attachment. Nle = CCCC[C@H](N)C(=O)O; Nva = CCC[C@H](N)C(=O)O; Cbz = O=C(OCc1ccccc1)*

Assays:
[1] = biological target: chymotrypsin-like activity of purified 20S proteasome (UniProt Q9P992); format: biochemical; settings: for IC50: read-out: IC50 towards the chymotrypsin-like activity of purified 20S proteasome
Chain of chymotrypsin-like activity of purified 20S proteasome (UniProt Q9P992) (Q9P992 whole entry): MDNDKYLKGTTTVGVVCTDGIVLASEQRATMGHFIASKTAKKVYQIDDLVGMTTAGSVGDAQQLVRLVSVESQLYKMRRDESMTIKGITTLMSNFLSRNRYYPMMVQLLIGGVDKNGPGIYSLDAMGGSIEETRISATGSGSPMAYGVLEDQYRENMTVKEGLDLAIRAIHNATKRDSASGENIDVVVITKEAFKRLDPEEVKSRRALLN
Description: (§1) FIG. 8. […] A). […] Initially, 0.5 μg of purified 20S proteasome is incubated with 20 μM of a fluorogenic peptide substrate, Suc-Leu-Leu-Val-Tyr-AMC, for 30 min at 37° C. in 100 μl of assay buffer (20 mM Tris-HCl, pH 8.0) with various concentrations of tannic acid. After incubation, the reaction mixture is diluted to 200 μl with the assay buffer, followed by measurement of the hydrolyzed 7-amido-4-methyl-coumarin (AMC) groups using a fluorometer with an excitation filter of 380 nm and an emission filter of 460 nm. B). […] Tannic acid (0.3 μg/ml) and Glucose (180 μg/ml) are used in the proteasome activity assay as described above. C). […] Purified calpain I (3 μg) protein is incubated with 40 μM of a fluorogenic peptide substrate, Suc-Leu-Tyr-AMC, for 30 min at 37° C. in 100 μl of assay buffer (50 mM Tris-HCl, pH 7.5, containing 50 mM NaCl, 1 mM EDTA, 1 mM EGTA, 5 mM β-Mercaptoethanol, 5 mM CaCl2, and 0.1% CHAPS) in the absence (control) or presence of 5 μg/ml of tannic acid or 0.18 μg/ml of calpeptin (calpain inhibitor).
(§2) Inhibition of the proteasome activity in vitro by tea polyphenols—To measure the 20S proteasome chymotrypsin-like activity, 0.5 μg of a purified 20S proteasome (Calbiochem) is incubated with 20 μM of a fluorogenic peptide substrate, Suc-Leu-Leu-Val-Tyr-AMC (Calbiochem), for 30 min at 37° C. in 100 μl of assay buffer (20 mM Tris-HCl, pH 8.0), with or without tea polyphenols (purity >95%; Sigma) or tea extract. After incubation, the reaction mixture is diluted to 200 μl with the assay buffer, followed by measurement of the hydrolyzed 7-amido-4-methyl-coumarin (AMC) groups using a VersaFluor™ Fluorometer with an excitation filter of 380 nm and an emission filter of 460 nm (Bio-Rad).

purified calpain I = biological target: T1, purified calpain I (Homo sapiens, UniProt P07384); experiment: Calpain I activity assay; format: biochemical; settings: FIG. 3B: EGCG 10 μM, calpeptin 1 μM
T1 construct: 3 μg purified calpain I (Human Erythrocytes, Calbiochem) is incubated; purchased Calbiochem; host or cells: human erythrocytes (tissue-purified)
T1 sequence (P07384 1-714): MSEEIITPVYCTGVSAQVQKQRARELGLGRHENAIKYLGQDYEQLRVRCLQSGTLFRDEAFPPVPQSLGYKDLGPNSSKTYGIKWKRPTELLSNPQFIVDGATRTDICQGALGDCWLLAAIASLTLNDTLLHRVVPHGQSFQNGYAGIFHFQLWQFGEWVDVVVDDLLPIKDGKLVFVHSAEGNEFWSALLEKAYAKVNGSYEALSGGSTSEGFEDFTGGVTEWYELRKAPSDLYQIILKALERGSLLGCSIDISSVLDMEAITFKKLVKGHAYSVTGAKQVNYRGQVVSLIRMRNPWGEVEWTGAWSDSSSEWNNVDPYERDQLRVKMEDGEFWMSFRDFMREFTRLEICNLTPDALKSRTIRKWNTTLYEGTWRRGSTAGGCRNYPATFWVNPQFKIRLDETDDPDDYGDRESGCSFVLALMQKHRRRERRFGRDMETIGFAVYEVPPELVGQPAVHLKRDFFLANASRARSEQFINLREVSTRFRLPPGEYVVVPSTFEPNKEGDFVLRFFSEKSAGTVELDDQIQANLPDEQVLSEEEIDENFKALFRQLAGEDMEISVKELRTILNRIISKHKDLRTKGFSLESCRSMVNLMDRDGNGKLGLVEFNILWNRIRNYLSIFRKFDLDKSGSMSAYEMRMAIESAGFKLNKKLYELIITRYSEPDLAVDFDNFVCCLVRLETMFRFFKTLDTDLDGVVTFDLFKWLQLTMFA
T1 sequence (P04632 1-268 partner): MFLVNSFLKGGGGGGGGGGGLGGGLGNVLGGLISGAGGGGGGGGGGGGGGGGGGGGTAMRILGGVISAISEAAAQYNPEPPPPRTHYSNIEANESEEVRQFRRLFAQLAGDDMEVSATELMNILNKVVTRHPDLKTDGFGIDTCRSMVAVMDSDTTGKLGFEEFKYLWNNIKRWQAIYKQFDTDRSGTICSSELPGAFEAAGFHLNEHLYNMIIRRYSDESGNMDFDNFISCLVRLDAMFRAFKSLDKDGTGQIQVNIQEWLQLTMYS
Description: as §1

[2] = biological target: T2, proteasome chymotrypsin-like activity in living Jurkat cells (Homo sapiens, UniProt P28074); experiment: Proteasome chymotrypsin-like activity in living Jurkat T cells; format: cell-based; settings: 10 μM, living Jurkat cells
T2 construct: endogenous in cells; host or cells: Jurkat T cells (whole cell extract or intact cells)
Description: FIG. 10. Inhibition of the chymotrypsin-like activity by tannic acid in intact Jurkat T cells. Intact Jurkat T cells (1×10^5 cells/ml/well) are cultured in 24-well plates. These cells are first incubated for 12 h with various concentrations of tannic acid as indicated, followed by an additional 2 h-incubation with a fluorogenic peptide substrate, Suc-Leu-Leu-Val-Tyr-AMC for the chymotrypsin-like activity. Then, cell medium (200 μl per sample) is collected and used for measurement of free AMCs.
Inhibition of the proteasome activity in living cells by tea polyphenols—To measure inhibition of the chymotrypsin-like activity in living tumor cells, Jurkat T (1×10^5 cells/ml/well), MCF7 or PC-3 cells (1×10^4 cells/ml/well) are cultured in 24-well plates. These cells are first incubated for 12 h with various concentrations of EGCG, EGC, β-lactone or LLnL, followed by an additional 2 h-incubation with fluorogenic peptide substrates, Suc-Leu-Leu-Val-Tyr-AMC for the chymotrypsin-like activity and Z-Gly-Gly-Arg-AMC for the trypsin-like activity. After that, cell medium (200 μl per sample) is collected and used for measurement of free AMCs.

[3] = biological target: T3, proteasome activity in MCF-7 cells (Homo sapiens, UniProt P28072+P28074+Q99436); experiment: Proteasome activity in lysate of pretreated MCF-7 cells; format: cell-based; settings: MCF-7 cells pretreated with inhibitor
T3 construct: endogenous in cells; host or cells: MCF-7 cells, pretreated and then lysed
T3 sequence (P28074 60-263): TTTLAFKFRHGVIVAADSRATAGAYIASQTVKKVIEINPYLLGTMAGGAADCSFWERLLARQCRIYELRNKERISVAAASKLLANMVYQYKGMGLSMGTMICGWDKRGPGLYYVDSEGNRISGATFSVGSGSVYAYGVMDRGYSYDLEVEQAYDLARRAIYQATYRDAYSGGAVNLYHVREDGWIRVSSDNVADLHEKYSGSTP
T3 sequence (P28072 1-239): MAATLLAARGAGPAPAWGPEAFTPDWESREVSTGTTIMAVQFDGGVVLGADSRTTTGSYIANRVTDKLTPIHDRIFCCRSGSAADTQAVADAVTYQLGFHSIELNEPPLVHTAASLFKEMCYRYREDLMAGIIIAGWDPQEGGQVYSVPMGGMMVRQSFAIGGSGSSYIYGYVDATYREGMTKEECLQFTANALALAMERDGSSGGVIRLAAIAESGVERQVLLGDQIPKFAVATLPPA
T3 sequence (Q99436 44-277): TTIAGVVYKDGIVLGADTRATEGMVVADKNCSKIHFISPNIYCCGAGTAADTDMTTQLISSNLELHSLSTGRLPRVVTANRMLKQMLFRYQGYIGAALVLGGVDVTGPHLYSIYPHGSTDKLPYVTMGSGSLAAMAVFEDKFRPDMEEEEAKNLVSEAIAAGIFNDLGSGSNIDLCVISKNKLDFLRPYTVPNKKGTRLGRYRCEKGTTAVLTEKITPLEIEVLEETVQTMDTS
Description: (a) The selected cell lines are treated with EGCG (vs. EGC) or ECG (vs. EC) at various concentrations (0-80 μM) for up to 96 h, followed by preparation of protein extracts and measurement of the proteasomal chymotrypsin-like, trypsin-like and PGPH activities and the calpain activity in cell-free assay. […] Thus, a protein extract of breast cancer cells pretreated with EGCG also contains decreased levels of the proteasome activity.

[4] = biological target: chymotrypsin-like activity of purified 20S proteasome; format: biochemical; settings: read-out: IC50 towards the chymotrypsin-like activity of purified 20S proteasome
Chain of chymotrypsin-like activity of purified 20S proteasome (Q9P992 whole entry): as the sequence (Q9P992 whole entry) above
Description: as §1, §2

[5] = biological target: T4, caspase-3-like activity in Jurkat T cell extract (Homo sapiens, UniProt P42574); experiment: Caspase-3 activity assay in Jurkat T cell extract; format: biochemical
T4 construct: endogenous in cells; host or cells: Jurkat T cell whole cell extract
T4 sequence (P42574 29-175 limits assumed): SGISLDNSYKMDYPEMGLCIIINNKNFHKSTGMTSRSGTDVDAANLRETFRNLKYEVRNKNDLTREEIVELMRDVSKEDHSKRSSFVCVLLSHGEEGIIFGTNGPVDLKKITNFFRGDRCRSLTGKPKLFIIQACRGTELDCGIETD
T4 sequence (P42574 176-277 limits assumed): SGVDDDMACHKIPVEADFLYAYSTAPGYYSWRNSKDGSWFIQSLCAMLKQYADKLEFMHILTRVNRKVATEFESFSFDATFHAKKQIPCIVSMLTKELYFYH
Description: Calpain I and Caspase-3 activities assays with tea polyphenols—To measure calpain I activity, 3 μg purified calpain I (Human Erythrocytes, Calbiochem) is incubated with 40 μM of a fluorogenic peptide substrate, Suc-Leu-Tyr-AMC (Calbiochem), for 30 min at 37° C. in 100 μl of assay buffer (50 mM Tris-HCl, pH 7.5, containing 50 mM NaCl, 1 mM EDTA, 1 mM EGTA, 5 mM β-Mercaptoethanol, 5 mM CaCl2, and 0.1% CHAPS), with or without EGCG. After incubation, the reaction mixture is diluted to 200 μl with the assay buffer, and the hydrolyzed AMCs are quantified as described above. For caspase-3 activity assay, the whole cell extract (3.5 μg) from Jurkat T cells is incubated for 90 min at 37° C. with 20 μM of a fluorogenic peptide substrate, Ac-Asp-Glu-Val-Asp-AMC. These procedures were similar to those of the proteasome assay with cell free extracts described above.

Compound: Oc1cc(O)c2c(c1)OC(c1ccc(O)c(O)c1)C(O)C2 (single isomer, unassigned; (-)) [C, (−)-catechin]
- inhibition of purified 20S proteasome chymotrypsin-like activity (in words) [1]: do not inhibit the proteasome activity

Compound: CCCC[C@@H](C=O)NC(=O)[C@H](CC(C)C)NC(=O)OCc1ccccc1 [Calpeptin, calpeptin, reference compound]
- inhibition of purified calpain activity (in words) (purified calpain I): able to inhibit

Compound: Oc1cc(O)c2c(c1)O[C@H](c1cc(O)c(O)c(O)c1)[C@@H](O)C2 [GC, (−)-gallocatechin]
- inhibition of purified 20S proteasome chymotrypsin-like activity (in words) [1]: do not inhibit the proteasome activity

Compound: CCCC[C@@H](C=O)NC(=O)[C@H](CC(C)C)NC(=O)[C@H](CC(C)C)NC(C)=O [LLnL, reference compound] (Ac-Leu-Leu-[Nle]-aldehyde)
- inhibition of chymotrypsin-like activity [2]: 40%

Compound: CCC[C@@H](C=O)NC(=O)[C@H](CC(C)C)NC(=O)[C@H](CC(C)C)NC(=O)OCc1ccccc1 [LLnV] (Cbz-Leu-Leu-[Nva]-aldehyde)
- proteasome activity in lysate of pretreated cells [3]: decreased levels of proteasome activity

Compound: O=C(O)c1cc(O)c(O)c(O)c1 [gallic acid, reference compound]
- fold less potent than EGCG ([1]; ratio of IC50 to EGCG): 83,000 fold
- IC50 [4]: 7100 µM

Compound: COC(=O)c1cc(O)c(O)c(O)c1 [methyl gallate, reference compound]
- inhibition of purified 20S proteasome chymotrypsin-like activity (in words) [1]: more potent than gallate

Compound: CC(C)[C@H](O)[C@@]12NC(=O)[C@H](C)[C@@H]1OC2=O [β-lactone, clastolactacystin β-lactone, reference compound]
- IC50 [1]: 0.6 µM
- inhibition of chymotrypsin-like activity [2]: 20%

Compound: (−)-catechin-3-gallate [CG]
- IC50 [1]: 0.124 µM

Compound: (−)-epicatechin-3-gallate [ECG]
- IC50 [1]: 0.194 µM

Compound: (−)-gallocatechin-3-gallate [GCG]
- IC50 [1]: 0.187 µM

Compound: Ac-DEVD-CMK [reference compound]
- inhibition of caspase-3-like activity (in words) [5]: blocked
